Test results as given in patent US12497642B2, “Incorporation of unnatural nucleotides and methods of use in vivo thereof” (THE SCRIPPS RESEARCH INSTITUTE, priority 2017, dated 2025).
Values joined by “and” are separate entries in the source; they are usually repeats but may differ in a detail not shown here. Identical values can stand only once.

Columns and labels:
[1] = system: semi-synthetic organism (SSO) (strain YZ3); assay: Replication and UBP retention in vivo in the semi-synthetic organism (streptavidin biotin shift, PAGE), Example 1; assay type: cell-based, Escherichia coli; details: for UBP retention: context 1, dNaMTP 125 μM, dTPT3TP analog 10 μM; for UBP retention in vivo, in words: dTPT3TP analog paired with dNaMTP, discussion; for UBP retention (%): Table 5, dTPT3TP 25 μM
Experimental: All bacteria were cultured in 100 μL of liquid 2×YT media (casein peptone 16 g/L, yeast extract 10 g/L, NaCl 5 g/L) supplemented with potassium phosphate (50 mM, pH 7) in 96-well microwell plates. When noted, antibiotics were used at the following concentrations: chloramphenicol, 5 μg/mL; ampicillin, 100 μg/mL. Cell growth, indicated as OD600, was measured using a Perkin Elmer EnVision 2103 Multilabel Reader with a 590/20 nm filter. Unless otherwise stated, molecular biology reagents were purchased from New England Biolabs (Ipswich, MA) and were used according to the manufacturer's protocols. As necessary, purification of nucleic acids was accomplished by micro-elution columns (Zymo Research Corp; Irvine, CA). All natural oligonucleotides were purchased from IDT (San Diego, CA), and oligonucleotides containing dNaM were synthesized by Biosearch Technologies (Petaluma, CA) with purification by reverse phase cartridge. Unnatural nucleotide triphosphates were prepared, and confirmed by MALDI-TOF and UV/Vis.
Plasmids containing the dNaM-dTPT3 UBP were prepared and used to transform the semi-synthetic organism (SSO). To create a template for in vivo replication assays, Golden Gate assembly was used to construct a derivative of the pUC19 plasmid in which a single dNaM-dTPT3 UBP was embedded within the TK1 sequence ([…]; […]), a context within which the UBP is well replicated in the SSO. Plasmids were then used to transform the SSO (strain YZ3). Following transformation, the SSO was allowed to recover at 37° C. for 1 h in media containing dNaMTP (125 μM) and dTPT3TP (25 μM). Cells were pelleted by centrifugation, resuspended in fresh media lacking unnatural triphosphates, split into 100-μL aliquots and then used to inoculate cultures containing different pairs of unnatural triphosphates at the specified concentrations. When the cell density reached an OD600 of ˜0.7, cells were pelleted and plasmids were recovered and PCR amplified with d5SICSTP and a biotinylated analog of dNaMTP, and UBP retention was determined by comparing the intensity of the streptavidin shifted and unshifted bands via PAGE.

[2] = PCR amplification in vitro (SAR named in the discussion); assay type: biochemical; details: paired with any analog
[3] = system: OneTaq DNA polymerase; assay: PCR amplification fidelity of DNA containing a single UBP (UBP retention in vitro); assay type: biochemical; details: with dTPT3TP, 20 cycles
From the text: The fidelity with which DNA containing a single UBP is PCR amplified was explored using OneTaq DNA polymerase. To quantify fidelity, templates containing the dNaM-dTPT3 UBP were amplified with dTPT3TP and dNaMTP, dPTMOTP or dMTMOTP. Two templates were used where the UBP was flanked by different sequence contexts; T1, where X (X=NaM, or after the first round of replication, NaM, PTNO, or MTMO) is flanked by a 5′ dA and a 3′ dT, and which with X=dNaM is well replicated in the SSO, and T2 where X is flanked by a 5′ dC and a 3′ dG, and which with X=dNaM is poorly replicated in the SSO. DNA was amplified for 20 cycles with extension times of either 1 min or 45 s, with the shorter times used to probe amplification efficiency. After amplification, the DNA was purified and UBP retention was characterized via a second PCR amplification using OneTaq and DeepVent DNA polymerases and a biotinylated analog of dNaMTP, whose product was analyzed by PAGE.

[4] = system: SSO (strain YZ3); assay: UBP retention in vivo in the SSO (biotin shift assay), Example 2; assay type: cell-based, Escherichia coli
From the text: Thus, to evaluate the UBPs in the in vivo environment of the SSO, Golden Gate assembly was used to construct four derivatives of the pUC19 plasmid containing a single dNaM-dTPT3 UBP, but where it was flanked by one of four different sequence contexts, context 1-4. These sequence contexts show decreasing UBP retention with dNaM-dTPT3. Plasmids were used to transform the SSO (strain YZ3), which was allowed to recover briefly in media containing dTPT3TP and either dNaMTP, dPTMOTP, or dMTMOTP. After transfer to fresh media containing the same triphosphates and ampicillin (to select for plasmid retention), the SSO was allowed to grow to an OD600 of ˜0.7, at which time plasmids were recovered and analyzed for UBP retention the same biotin shift assay described above. FIG. 9 exemplifies the results in vivo.

[5] = molecular target: T1, Klenow fragment of E. coli DNA polymerase I (Escherichia coli, UniProt P00582); assay: Steady-state kinetic assay of unnatural triphosphate insertion; assay type: biochemical; details: insertion of dXTP opposite dY = dTPT3 in template
T1 construct: the Klenow fragment of E. coli DNA polymerase I
T1 sequence (P00582 324-928): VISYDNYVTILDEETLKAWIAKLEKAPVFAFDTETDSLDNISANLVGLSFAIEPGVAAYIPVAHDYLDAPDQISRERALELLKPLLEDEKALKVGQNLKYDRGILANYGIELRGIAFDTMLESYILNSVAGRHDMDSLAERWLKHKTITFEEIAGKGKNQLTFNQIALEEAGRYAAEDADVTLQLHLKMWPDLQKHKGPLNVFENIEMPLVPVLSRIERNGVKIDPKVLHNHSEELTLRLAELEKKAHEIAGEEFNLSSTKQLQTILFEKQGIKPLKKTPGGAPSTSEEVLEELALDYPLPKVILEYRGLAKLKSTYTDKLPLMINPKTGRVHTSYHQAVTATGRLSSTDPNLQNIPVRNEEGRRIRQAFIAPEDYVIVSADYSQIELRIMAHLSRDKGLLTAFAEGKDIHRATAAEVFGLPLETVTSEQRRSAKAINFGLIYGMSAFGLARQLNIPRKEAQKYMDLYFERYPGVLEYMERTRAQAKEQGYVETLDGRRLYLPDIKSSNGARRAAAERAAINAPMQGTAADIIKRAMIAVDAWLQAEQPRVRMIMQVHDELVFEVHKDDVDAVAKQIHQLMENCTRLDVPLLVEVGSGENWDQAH

[6] = template T1 (5′ dA, 3′ dT), extension time 45 s
[7] = template T1 (5′ dA, 3′ dT), extension time 1 min
[8] = template T2 (5′ dC, 3′ dG), extension time 45 s
[9] = template T2 (5′ dC, 3′ dG), extension time 1 min
[10] = context d(ANaMT) / AXT, dTPT3TP 25 μM, triphosphate 5 μM
[11] = context d(ANaMT) / AXT, dTPT3TP 25 μM, triphosphate 10 μM
[12] = context d(ANaMT), with dTPT3TP, triphosphate 25 μM
[13] = context d(ANaMT), with dTPT3TP, triphosphate 150 μM
[14] = context d(CNaMC), with dTPT3TP, triphosphate 25 μM
[15] = context d(CNaMC), with dTPT3TP, triphosphate 150 μM
[16] = context d(CNaMG), with dTPT3TP, triphosphate 25 μM
[17] = context d(CNaMG), with dTPT3TP, triphosphate 150 μM

SMILES	UBP retention [1]	UBP retention in vivo, in words [1]	PCR amplification [2]	UBP retention after PCR amplification [3, 6] [%]	UBP retention after PCR amplification [3, 7] [%]	UBP retention after PCR amplification [3, 8] [%]	UBP retention after PCR amplification [3, 9] [%]	UBP retention [4, 10]	UBP retention [4, 11]	UBP retention [4, 12] [%]	UBP retention [4, 13] [%]	UBP retention [4, 14] [%]	UBP retention [4, 15] [%]	UBP retention [4, 16] [%]	UBP retention [4, 17] [%]	Km [5] [µM]	kcat [5]	also measured
Cc1ccc2c(=O)n(C3CC(O)C(COP(=O)(O)OP(=O)(O)OP(=O)(O)O)O3)ccc2c1 (centres unmarked) [d5MICSTP]	significant retention	reasonable retention in vivo	do not support PCR amplification	–	–	–	–	–	–	–	–	–	–	–	–	–	–	UBP retention in vivo, in words ([1]; listed as d5MICS): reasonably well, but only at low concentration
O=c1c2ccccc2ccn1C1CC(O)C(COP(=O)(O)OP(=O)(O)OP(=O)(O)O)O1 (centres unmarked) [dICSTP]	significant retention	reasonable retention in vivo	do not support PCR amplification	–	–	–	–	–	–	–	–	–	–	–	–	–	–	UBP retention in vivo, in words ([1]; listed as dICS): reasonably well, but only at low concentration
COc1cc2ccsc2cc1C1CC(O)C(COP(=O)(O)OP(=O)(O)OP(=O)(O)O)O1 (centres unmarked) [dMTMOTP]	–	–	–	84	80	58	58	59% and 59±24%	80% and 80±11%	96	99	19	62	5	8	0.22	0.142 s⁻¹ and 0.142 ± 0.0283 s⁻¹	–
COc1cc2ccccc2cc1[C@H]1C[C@H](O)[C@@H](COP(=O)(O)OP(=O)(O)OP(=O)(O)O)O1 [dNaMTP, reference compound]	–	–	–	95	100	85	86	17% and 17±21%	29% and 29±11%	82	98	7	44	5	6	0.09	0.178 s⁻¹	UBP retention (%) ([1]; sequence context 1 (AXT), dNaMTP or dCNMOTP 25 μM): 85%; UBP retention (%) ([1]; sequence context 1 (AXT), dNaMTP or dCNMOTP 25 μM, listed as dNaM): 85 ± 10%; UBP retention (%) ([1]; sequence context 1 (AXT), dNaMTP or dCNMOTP 125 μM): 99 ± 3%; UBP retention (%) ([1]; sequence context 2 (AXA), dNaMTP or dCNMOTP 25 μM): 36%; UBP retention (%) ([1]; sequence context 2 (AXA), dNaMTP or dCNMOTP 25 μM, listed as dNaM): 36 ± 29%; UBP retention (%) ([1]; sequence context 2 (AXA), dNaMTP or dCNMOTP 125 μM): 73%; UBP retention (%) ([1]; sequence context 2 (AXA), dNaMTP or dCNMOTP 125 μM, listed as dNaM): 73 ± 21%; UBP retention (%) ([1]; sequence context 3 (CXC), dNaMTP or dCNMOTP 25 μM): no retention; UBP retention (%) ([1]; sequence context 3 (CXC), dNaMTP or dCNMOTP 25 μM, listed as dNaM): 7 ± 2%; UBP retention (%) ([1]; sequence context 3 (CXC), dNaMTP or dCNMOTP 125 μM): 26%; UBP retention (%) ([1]; sequence context 3 (CXC), dNaMTP or dCNMOTP 125 μM, listed as dNaM): 26 ± 16%; UBP retention (%) ([1]; sequence context 4 (CXG), dNaMTP or dCNMOTP 25 μM): not retained significantly; UBP retention (%) ([1]; sequence context 4 (CXG), dNaMTP or dCNMOTP 25 μM, listed as dNaM): 9 ± 1%; UBP retention (%) ([1]; sequence context 4 (CXG), dNaMTP or dCNMOTP 125 μM): not retained significantly; UBP retention (%) ([1]; sequence context 4 (CXG), dNaMTP or dCNMOTP 125 μM, listed as dNaM): 13 ± 2%
COc1cc2sccc2cc1[C@H]1C[C@H](O)[C@@H](COP(=O)(O)OP(=O)(O)OP(=O)(O)O)O1 [dPTMOTP]	–	–	–	90	98	74	78	77% and 77±22%	92% and 92±6%	99	98	55	97	2	7	0.08	0.323 s⁻¹ and 0.323 ± 0.02 s⁻¹	toxicity to cells ([4]; SSO cells, concentration matrix 5-150 μM, context CXC): not toxic to cells; effective concentration can be dropped to ([4]; context CXC (difficult to replicate sequences)): 100 µM; UBP retention (Avg) ([4]; context CXC, dPTMOTP 5 μM, dTPT3TP 5 μM): 7%; UBP retention (Avg) ([4]; context CXC, dPTMOTP 5 μM, dTPT3TP 25 μM): 7%; UBP retention (Avg) ([4]; context CXC, dPTMOTP 5 μM, dTPT3TP 100 μM): 10%; UBP retention (Avg) ([4]; context CXC, dPTMOTP 5 μM, dTPT3TP 150 μM): 7%; UBP retention (Avg) ([4]; context CXC, dPTMOTP 25 μM, dTPT3TP 5 μM): 18%; UBP retention (Avg) ([4]; context CXC, dPTMOTP 25 μM, dTPT3TP 25 μM): 59%; UBP retention (Avg) ([4]; context CXC, dPTMOTP 25 μM, dTPT3TP 100 μM): 63%; UBP retention (Avg) ([4]; context CXC, dPTMOTP 25 μM, dTPT3TP 150 μM): 47%; UBP retention (Avg) ([4]; context CXC, dPTMOTP 100 μM, dTPT3TP 5 μM): 58%; UBP retention (Avg) ([4]; context CXC, dPTMOTP 100 μM, dTPT3TP 25 μM): 89%; UBP retention (Avg) ([4]; context CXC, dPTMOTP 100 μM, dTPT3TP 100 μM): 93%; UBP retention (Avg) ([4]; context CXC, dPTMOTP 100 μM, dTPT3TP 150 μM): 66%; UBP retention (Avg) ([4]; context CXC, dPTMOTP 150 μM, dTPT3TP 5 μM): 61%; UBP retention (Avg) ([4]; context CXC, dPTMOTP 150 μM, dTPT3TP 25 μM): 103%; UBP retention (Avg) ([4]; context CXC, dPTMOTP 150 μM, dTPT3TP 100 μM): 90%; UBP retention (Avg) ([4]; context CXC, dPTMOTP 150 μM, dTPT3TP 150 μM): 64%
